These results are taken from patent US11872225B2, “Pyruvate kinase modulators and use thereof” (Agios Pharmaceuticals, Inc., priority 2017, dated 2024).

The experiment deals with wild type PKM2 (Homo sapiens, UniProt P14618). The experiment is described as follows: PKM2 Assay (LDH/NADH-coupled, absorbance at 340 nm). The note with it: wild type PKM2 activation; 60 min preincubation at 25° C.; ADP 0.4 mM, PEP 0.11 mM; read-out: PKM2 WT AC50. The format is biochemical. How it is done: A compound described herein may be tested for its ability to activate PKM2. For simplicity, the activation activity of these compounds is represented as an AC50 in Table 2. In Tables 2, a compound described herein may have an AC50 of wild type PKM2.
Sequence of wild type PKM2 (P14618 whole entry): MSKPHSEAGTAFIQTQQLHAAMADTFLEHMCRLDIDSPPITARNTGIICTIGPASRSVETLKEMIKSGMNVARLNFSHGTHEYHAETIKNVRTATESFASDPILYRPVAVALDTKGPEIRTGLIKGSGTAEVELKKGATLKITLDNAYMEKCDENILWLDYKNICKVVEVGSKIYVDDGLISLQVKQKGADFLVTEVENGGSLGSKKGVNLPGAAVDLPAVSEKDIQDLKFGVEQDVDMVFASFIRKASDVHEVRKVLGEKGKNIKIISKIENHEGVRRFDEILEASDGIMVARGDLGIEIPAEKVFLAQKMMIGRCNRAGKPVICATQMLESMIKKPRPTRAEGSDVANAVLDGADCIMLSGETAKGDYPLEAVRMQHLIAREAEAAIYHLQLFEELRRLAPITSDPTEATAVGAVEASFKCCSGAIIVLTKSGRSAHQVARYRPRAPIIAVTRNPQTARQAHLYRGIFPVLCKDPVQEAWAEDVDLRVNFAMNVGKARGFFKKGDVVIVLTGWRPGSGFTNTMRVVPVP
PKM2 enzyme stock solution was diluted to prepare a 1.11× Reaction Mix (without ADP). 1 μL of test compound was first added to the wells followed by 40 μL of 1.11× Reaction Mix (without ADP) and incubated at room temperature (25° C.) for 60 min. The reaction was initiated with 10 μL ADP (0.4 mM final concentration), bringing the final Reaction Mix to 1×, and the reaction progress was measured as changes in absorbance at 340 nm wavelength at room temperature.
Test compound preparation: Test compounds were prepared at 50× final concentration in DMSO. 1 to 3 dilutions were made for 11 points (for example 50 μL of 5000 μM compound was added to 100 μL 100% DMSO to yield a 1667 μM, 50 μL of this added to 100 μL DMSO to yield 556 μM, and so forth). The compounds were added to the assay as a 1 to 50 dilution (1 μL in 50 μL) to yield a top concentration of 100 μM, decreasing 3-fold for 11 points.
Reaction Mix: PKM2 (5 ng/well, 0.1 μg/ml), ADP (0.4 mM), PEP (0.11 mM), NADH (180 μM), LDH (0.005 U/μL, Sigma #L3888), 1 mM DTT, 0.03% BSA in 1× Reaction Buffer
Reaction Buffer: 100 mM KCl, 50 mM Tris pH 7.5, 5 mM MgCl2.
On to `Cn1c2nc(Cc3cc[nH]n3)sc2c2cnn(Cc3ccc(C(N)=O)cn3)c(=O)c21` [Compound 119], for which the AC50 is 301 to 800 nM. As to `Cn1c2nc(Cc3cc[nH]c(=O)c3)sc2c2cnn(Cc3cccc4[nH]ncc34)c(=O)c21` [Compound 76], the AC50 is under 300 nM. As to `Cn1c2nc(Cn3ccnc3)sc2c2cnn(Cc3ccnc(N)n3)c(=O)c21` [Compound 144], the AC50 was over 800 nM. Regarding `COc1cccc(Cn2ncc3c4sc(S(=O)(=O)c5ccccc5)nc4n(C)c3c2=O)c1` [Compound 10], the AC50 is under 300 nM. With `Cn1cc(Cc2nc3c(s2)c2cnn(Cc4cccc5[nH]ncc45)c(=O)c2n3C)cn1` [Compound 66], the AC50 was under 300 nM.

Consider `Cn1c2nc(Cc3cc[nH]n3)sc2c2cnn(Cc3cccc4[nH]ncc34)c(=O)c21` [Compound 31], for which the AC50 was under 300 nM. For `Cn1c2nc(Cc3cc[nH]n3)sc2c2cnn(CCc3cccc(N)n3)c(=O)c21` [Compound 126] the value was under 300 nM; for `Cn1c2nc(Cc3cc[nH]n3)sc2c2cnn(Cc3cccc4c3NS(=O)(=O)N4)c(=O)c21` [Compound 98], 301 to 800 nM; for `COC(=O)C(C(=O)OC)c1nc2c(s1)c1cnn(Cc3cccc4[nH]ncc34)c(=O)c1n2C` [Compound 43], under 300 nM.

With `COC(=O)c1nc2c(s1)c1cnn(Cc3cccc(OC)c3)c(=O)c1n2C` [Compound 13], the AC50 lay in the range of 301 to 800 nM. For `Cn1c2nc([S+](C)[O-])sc2c2cnn(Cc3ccnc(N)n3)c(=O)c21` (stereo not shown) [Compound 36] the value was 301 to 800 nM; for `Cn1c2nc(Cc3cnoc3)sc2c2cnn(Cc3cccc4[nH]ncc34)c(=O)c21` [Compound 65], under 300 nM; for `CC(=O)NC(c1cc[nH]n1)c1nc2c(s1)c1cnn(Cc3cccc4[nH]ncc34)c(=O)c1n2C` (stereo not shown) [Compound 62], over 800 nM. Turning to `CCOC(=O)c1cccc(Cn2ncc3c4sc(C)nc4n(C)c3c2=O)c1` [Compound 4], the AC50 fell in the range of 301 to 800 nM.

`Cn1ccc(CCn2ncc3c4sc(Cc5cccnc5)nc4n(C)c3c2=O)n1` [Compound 137]: the AC50 was in the range of 301 to 800 nM. The value for `Cn1c2nc(Cc3cc[nH]n3)sc2c2cnn(Cc3[nH]ncc3Cl)c(=O)c21` [Compound 103] was under 300 nM; that for `Cn1c2nc(Cc3cc[nH]n3)sc2c2cnn(CCc3cccnc3)c(=O)c21` [Compound 136] was 301 to 800 nM. On to `Cc1nc2c(s1)c1cnn(Cc3ccc([N+](=O)[O-])cc3)c(=O)c1n2C` [Compound 17], for which the AC50 is over 800 nM. Turning to `Cn1c2nc(C(=O)c3cc[nH]n3)sc2c2cnn(Cc3cccc(N)n3)c(=O)c21` [Compound 123], the concentration at half-maximal activity (AC50) was under 300 nM. Regarding `Cn1c2nc(NC(=O)Cc3cc[nH]n3)sc2c2cnn(Cc3cccc4[nH]ncc34)c(=O)c21` [Compound 64], the AC50 was over 800 nM. On to `Cn1c2nc(Cc3cc[nH]n3)sc2c2cnn(Cc3cccc(N)n3)c(=O)c21` [Compound 74], for which the AC50 was under 300 nM. As to `Cn1c2nc(Cc3cc[nH]n3)sc2c2cnn(Cc3ccc(C(N)=O)cc3)c(=O)c21` [Compound 61], the AC50 is over 800 nM.

On to `CSc1nc2c(s1)c1cnn(Cc3ccnc(=O)[nH]3)c(=O)c1n2C` [Compound 35], for which the AC50 is over 800 nM. Turning to `Cn1c2nc(Cc3c[nH]nn3)sc2c2cnn(Cc3ccccc3)c(=O)c21` [Compound 97], the AC50 was over 800 nM. Consider `Cn1cc(Cc2nc3c(s2)c2cnn(Cc4cccc(C(N)=O)c4)c(=O)c2n3C)cn1` [Compound 128], for which the AC50 is under 300 nM. `Cn1c2nc(C3(c4ccccc4)CC3)sc2c2cnn(Cc3cccc4[nH]ncc34)c(=O)c21` [Compound 53]: the concentration at half-maximal activity (AC50) is over 800 nM. On to `Cn1c2nc(Cc3cc[nH]n3)sc2c2cnn(Cc3cscn3)c(=O)c21` [Compound 87], for which the AC50 is under 300 nM. For `Cn1c2nc(CN)sc2c2cnn(Cc3cccc4[nH]ncc34)c(=O)c21` [Compound 49] the value was 301 to 800 nM. The value for `C=Cc1nc2c(s1)c1cnn(Cc3cccc4[nH]ncc34)c(=O)c1n2C` [Compound 39] was under 300 nM. Regarding `Cn1c2nc(Cc3cc[nH]n3)sc2c2cnn(Cc3nccs3)c(=O)c21` [Compound 78], the AC50 is under 300 nM. For `Cn1c2nc(Cc3cncnc3)sc2c2cnn(Cc3cccc4[nH]ncc34)c(=O)c21` [Compound 56], the AC50 was over 800 nM.

As to `Cn1ccc(Cc2nc3c(s2)c2cnn(Cc4ccn[nH]4)c(=O)c2n3C)n1` [Compound 110], the AC50 is under 300 nM. As to `Cc1nc2c(s1)c1cnn(CO)c(=O)c1n2C` [Compound 7], the AC50 was over 800 nM. As for `Cn1c2nc(Cc3cnn[nH]3)sc2c2cnn(Cc3cccc4[nH]ncc34)c(=O)c21` [Compound 86], the AC50 was under 300 nM. The value for `Cn1c2nc(Cn3cncn3)sc2c2cnn(Cc3n[nH]c(=O)[nH]3)c(=O)c21` [Compound 145] was over 800 nM; that for `Cc1nc2c(s1)c1cnn(CCO)c(=O)c1n2C` [Compound 25] was over 800 nM; that for `Cn1c2nc(Cc3ccc(=O)[nH]c3)sc2c2cnn(Cc3cccc4[nH]ncc34)c(=O)c21` [Compound 60] was over 800 nM.

For `Cn1cc(CC(N)=O)c(Cn2ncc3c4sc(Cc5cc[nH]n5)nc4n(C)c3c2=O)n1` [Compound 125], the AC50 was over 800 nM. Consider `Cn1c2nc(Cc3ccccn3)sc2c2cnn(Cc3cc[nH]n3)c(=O)c21` [Compound 92], for which the AC50 is under 300 nM.

Turning to `Cn1c2nc(Cc3ncsc3F)sc2c2cnn(Cc3cc[nH]n3)c(=O)c21` [Compound 112], the half-maximal activity concentration (AC50) is under 300 nM. The value for `Cn1c2nc(Cc3cc[nH]n3)sc2c2cnn(Cc3ccccc3)c(=O)c21` [Compound 72] was under 300 nM.

For the molecule `O=c1c2c(cnn1Cc1ccccc1)c1sc(Cc3ccccn3)nc1n2-c1ccccc1` [Compound 140], the AC50 is over 800 nM. For `Cn1c2nc(Cc3cc[nH]n3)sc2c2cnn(Cc3csc(C(N)=O)n3)c(=O)c21` [Compound 69] the value was under 300 nM; for `Cc1nc2c(s1)c1cnn(Cc3ccc4nn[nH]c4c3)c(=O)c1n2C` [Compound 6], 301 to 800 nM. For `Cc1nc2c(s1)c1cnn(Cc3cccc(F)c3)c(=O)c1n2C` [Compound 2] the value was under 300 nM. For `CCOC(c1cscn1)c1nc2c(s1)c1cnn(Cc3c[nH]nn3)c(=O)c1n2C` (stereo not shown) [Compound 114] the value was over 800 nM. Consider `Cn1c2nc(Cc3cc[nH]n3)sc2c2cnn(Cc3n[nH]c(=O)[nH]3)c(=O)c21` [Compound 131], for which the AC50 fell in the range of 301 to 800 nM. The value for `Cn1c2nc([S+](C)[O-])sc2c2cnn(Cc3ccnc(N)c3)c(=O)c21` (stereo not shown) [Compound 29] was 301 to 800 nM; that for `Cn1c2nc(Cc3c[nH]nn3)sc2c2cnn(Cc3cc[nH]n3)c(=O)c21` [Compound 100] was under 300 nM; that for `Cc1nc2c(s1)c1cnn(Cc3c[nH]cn3)c(=O)c1n2C` [Compound 12] was over 800 nM. The value for `Cn1cc(C(N)=O)c(Cn2ncc3c4sc(Cc5cc[nH]n5)nc4n(C)c3c2=O)n1` [Compound 116] was over 800 nM. For `Cn1c2nc(Cc3cc[nH]n3)sc2c2cnn(Cc3csc(N)n3)c(=O)c21` [Compound 75] the value was under 300 nM.

Take `Cc1nc2c(s1)c1cnn(Cc3cccc(C(=O)O)c3)c(=O)c1n2C` [Compound 5]: the AC50 was over 800 nM. As for `Cn1c2nc(Cc3n[nH]cc3F)sc2c2cnn(Cc3n[nH]cc3OC(F)(F)F)c(=O)c21` [Compound 121], the AC50 lay within 301 to 800 nM. The value for `Cn1c2nc(Cc3cc[nH]n3)sc2c2cnn(Cc3ccn[nH]3)c(=O)c21` [Compound 63] was under 300 nM; that for `COc1ccccc1Cn1ncc2c3sc(C)nc3n(C)c2c1=O` [Compound 3] was 301 to 800 nM. The value for `Cn1c2nc(Cc3cc[nH]n3)sc2c2cnn(Cc3ccc(C#N)cn3)c(=O)c21` [Compound 118] was 301 to 800 nM; that for `Cn1ccc(Cn2ncc3c4sc(Cc5cccc(N)n5)nc4n(C)c3c2=O)n1` [Compound 109] was under 300 nM; that for `Cn1c2nc(Cn3ccnc3)sc2c2cnn(Cc3cccc(C(N)=O)c3)c(=O)c21` [Compound 129] was under 300 nM. For the molecule `COC(=O)C(c1cc[nH]n1)c1nc2c(s1)c1cnn(Cc3cccc4[nH]ncc34)c(=O)c1n2C` (stereo not shown) [Compound 58], the AC50 is over 800 nM.

For the molecule `Cn1c2nc(Cc3cc[nH]n3)sc2c2cnn(Cc3nccc(N)n3)c(=O)c21` [Compound 135], the AC50 is under 300 nM. On to `Cn1c2nc(Cc3cc[nH]n3)sc2c2cnn(Cc3ncns3)c(=O)c21` [Compound 94], for which the AC50 was under 300 nM. The value for `Cc1nc2c(s1)c1cnn(Cc3cccc4[nH]ncc34)c(=O)c1n2C` [Compound 8] was under 300 nM; that for `Cn1c2nc(Cc3cc[nH]n3)sc2c2cnn(Cc3ccc4scnc4c3)c(=O)c21` [Compound 88] was under 300 nM. For `Cc1nc2c(s1)c1cnn(Cc3ccc(N)cc3)c(=O)c1n2C` [Compound 18], the AC50 was over 800 nM. The value for `Cn1c2nc(Cn3cnnc3)sc2c2cnn(Cc3cc[nH]n3)c(=O)c21` [Compound 106] was over 800 nM. For `Cn1ccc(Cn2ncc3c4sc(Cc5n[nH]cc5F)nc4n(C)c3c2=O)n1` [Compound 113] the value was under 300 nM.

Usually AC50 stands for the concentration at which the activity in the assay is half-maximal.
